We go through 2 compounds from publication PMC8329300, “X-ray crystallography reveals molecular recognition mechanism for sugar binding in a melibiose transporter MelB” (Communications Biology, 2021).

In assay [1] the test system is E. coli DW2 strain (melB−, lacZ−Y−). In words: [3H]Melibiose transport time course with DW2 intact cells. The format is cell-based, Escherichia coli. Details: unit not given here. To be noted: 0.4 mM [3H]melibiose. Here is the method:
Fig. 1 Functional characterizations. a [^3H] Melibiose transport time course with intact cells. E. coli DW2 strain (melB^−, lacZ^−Y^−) expressed with the WT, D59C, or D59A MelBSt mutants were subjected to [^3H]melibiose active transport assay at 0.4 mM and 10 mCi/mmol in the presence of 20 mM or 100 mM NaCl or LiCl by a fast filtration method. Inset, melibiose fermentation assay. Transformants with DW2 strain were plated on MacConkey agar plates containing 30 mM melibiose as the sole carbohydrate source and pH sensor neutral red, and incubated at 37 °C for 16–18 h before imaging. Number of tests = 3, from different batch of cells or duplicate measurements from same batch of sample. b Ligand binding by Trp→dansyl galactoside (D^2G) FRET assay. Purified proteins at 1 μM concentration in 20 mM Tris-HCl, pH 7.5, 100 mM CholCl, 10% glycerol, and 0.03% UDM were subjected to steady-state fluorescence measurements as described in Methods. On the time-trace, 1.8 μL of 1 mM D^2G at 10 μM was added into 180 μL of protein solutions at 1-min point, followed by supplying 10 μL of 5 mM DDMB or 5 mM α-NPG to displace the bound D^2G. For testing Na^+ or Li^+ binding, they are added into the solution before displacement with the second sugar. The structure of DDMB or α-NPG is shown in a chair form, and the carbon positions are labeled. Glycosidic bonds are indicated by arrows. Both are α-galactosides containing a substituent at the anomeric carbon-1. The data were from duplicate measurements.
The overexpression of MelBSt was carried out in the E. coli DW2 strain (melA^+, melB^−, and lacZ^−Y^−) from a constitutive expression plasmid pK95ΔAH/MelBSt/CHis10[9],[28],[33]. The D59C or D59A mutant with Cys or Ala at the position 59, respectively, was constructed previously[9] or in this study by QuikChange Site-Directed Mutagenesis kit and confirmed by DNA sequencing analysis. E. coli DW2 cells containing a given plasmid were grown in Luria-Bertani (LB) broth (5 g yeast extract and 10 g tryptone per liter with 171 mM NaCl) with 100 mg/L of ampicillin in a 37 °C shaker. The overnight cultures were diluted by 5% with LB broth supplemented with 0.5% glycerol and 100 mg/L of ampicillin, and constitutive overexpression was obtained by shaking at 30 °C for another 5 h.
E. coli DW2 cells expressing MelBSt were washed with 100 mM KPi, pH 7.5, to remove Na^+ contamination as described previously. The cell pellets were resuspended with the assay buffer (100 mM KPi, pH 7.5, 10 mM MgSO4) and adjusted to A420 of 10 (∼0.7 mg protein/ml). Using a fast filtration, transport time course at 0.4 mM melibiose (at specific activity of 10 mCi/mmol) was carried out in the absence or presence of NaCl or LiCl at 20 mM or 100 mM, respectively, and intracellular melibiose was determined as described previously.

Assay [2] addresses T1, WT MelBSt (Salmonella typhimurium, UniProt P30878).
T1 construct: Cys scanning mutagenesis for the full-length MelBSt; His10 (C); made in house; host or cells: E. coli DW2
The note with it: ITC 25 °C, data from publication or averaged with more tests, read-out: Kd of substrate binding, Melibiose, cited from earlier work.

Assay [3] deals with T2, D59A MelBSt (Salmonella typhimurium, UniProt P30878, D59A).
T2 construct: Cys scanning mutagenesis for the full-length MelBSt; His10 (C); made in house; host or cells: E. coli DW2
T2 sequence (P30878 whole entry D59A): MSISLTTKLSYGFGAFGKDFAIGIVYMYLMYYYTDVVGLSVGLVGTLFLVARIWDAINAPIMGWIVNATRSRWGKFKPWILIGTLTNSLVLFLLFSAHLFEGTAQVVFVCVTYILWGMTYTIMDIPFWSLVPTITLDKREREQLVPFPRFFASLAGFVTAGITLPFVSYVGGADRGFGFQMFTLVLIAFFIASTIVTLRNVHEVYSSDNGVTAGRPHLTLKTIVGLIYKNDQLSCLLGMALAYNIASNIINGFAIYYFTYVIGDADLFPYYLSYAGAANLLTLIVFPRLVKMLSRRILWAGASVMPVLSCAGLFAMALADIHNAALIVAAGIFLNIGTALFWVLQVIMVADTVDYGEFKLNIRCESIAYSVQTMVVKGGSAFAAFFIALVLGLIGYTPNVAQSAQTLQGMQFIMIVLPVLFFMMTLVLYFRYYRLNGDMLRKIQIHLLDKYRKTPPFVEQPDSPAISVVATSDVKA
In words: Trp→dansyl galactoside (D2G) FRET time trace (D59A). The format is binding. The note with it: no Na+ or Li+ stimulation. As for the experimental part:
Fig. 1 Functional characterizations. a [^3H] Melibiose transport time course with intact cells. E. coli DW2 strain (melB^−, lacZ^−Y^−) expressed with the WT, D59C, or D59A MelBSt mutants were subjected to [^3H]melibiose active transport assay at 0.4 mM and 10 mCi/mmol in the presence of 20 mM or 100 mM NaCl or LiCl by a fast filtration method. Inset, melibiose fermentation assay. Transformants with DW2 strain were plated on MacConkey agar plates containing 30 mM melibiose as the sole carbohydrate source and pH sensor neutral red, and incubated at 37 °C for 16–18 h before imaging. Number of tests = 3, from different batch of cells or duplicate measurements from same batch of sample. b Ligand binding by Trp→dansyl galactoside (D^2G) FRET assay. Purified proteins at 1 μM concentration in 20 mM Tris-HCl, pH 7.5, 100 mM CholCl, 10% glycerol, and 0.03% UDM were subjected to steady-state fluorescence measurements as described in Methods. […]
Steady-state fluorescence measurements were performed with an AMINCO-Bowman series 2 spectrometer with purified MelBSt at 1 μM in 20 mM Tris-HCl, pH 7.5, 100 mM CholCl, 10% glycerol, 0.03% UDM. Using an excitation wavelength at 290 nm, the emission intensity was recorded at 490 nm. […]

Read-outs that look alike come from different tables or passages of the source.

T1 sequence (P30878 whole entry): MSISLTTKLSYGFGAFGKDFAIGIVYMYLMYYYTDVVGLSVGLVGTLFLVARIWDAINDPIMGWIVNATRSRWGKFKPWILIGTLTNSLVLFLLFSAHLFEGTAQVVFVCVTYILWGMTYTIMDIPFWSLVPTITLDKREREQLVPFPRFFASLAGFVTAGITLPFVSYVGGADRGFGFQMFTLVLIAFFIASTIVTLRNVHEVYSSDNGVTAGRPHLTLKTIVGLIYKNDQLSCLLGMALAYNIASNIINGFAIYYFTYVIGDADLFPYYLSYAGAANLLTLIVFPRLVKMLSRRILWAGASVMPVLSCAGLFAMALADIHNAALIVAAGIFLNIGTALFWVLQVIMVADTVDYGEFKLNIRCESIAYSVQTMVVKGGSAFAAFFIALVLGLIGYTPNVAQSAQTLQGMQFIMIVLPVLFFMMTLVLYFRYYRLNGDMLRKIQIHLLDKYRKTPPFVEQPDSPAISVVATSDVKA

In general, Kd refers to the equilibrium constant for the complex coming apart. For `OC[C@H]1O[C@H](OCC2O[C@@H](O)[C@H](O)[C@@H](O)[C@@H]2O)[C@H](O)[C@@H](O)[C@H]1O` (stereo partly shown) [Melibiose], the Melibiose transport in assay [1] (H+, Time 0.08333) amounted to 5.1051; in assay [1] (H+, Time 0.16667), 0.0051; in assay [1] (H+, Time 0.5), 5.3907; in assay [1] (H+, Time 1), 1.8156; in assay [1] (H+, Time 2), 6.1659; in assay [1] (H+, Time 5) it was 3.5343. In addition, the Melibiose transport was 0.765 in assay [1] (H+, Time 10); 0.4743 in assay [1] (H+, Time 30); 4.9419 in assay [1] (Li+, 20 mM, Time 0.08333); 5.658 in assay [1] (Li+, 20 mM, Time 0.16667); 3.542 in assay [1] (Li+, 20 mM, Time 0.5); 2.349 in assay [1] (Li+, 20 mM, Time 1). Besides, the Melibiose transport was determined as 6.918 in assay [1] (Li+, 20 mM, Time 2); 4.664 in assay [1] (Li+, 20 mM, Time 5); 5.3448 in assay [1] (Li+, 20 mM, Time 10); 4.1259 in assay [1] (Li+, 20 mM, Time 30); 3.0914 in assay [1] (Li+, 100 mM, Time 0.08333); 1.7168 in assay [1] (Li+, 100 mM, Time 0.16667). The Melibiose transport in assay [1] (Li+, 100 mM, Time 0.5) is recorded as 6.0378; in assay [1] (Li+, 100 mM, Time 1), 1.9198; in assay [1] (Li+, 100 mM, Time 2), 3.77; in assay [1] (Li+, 100 mM, Time 5), 5.9682; in assay [1] (Li+, 100 mM, Time 10) it was 7.743; in assay [1] (Li+, 100 mM, Time 30), -0.2436. The Melibiose transport in assay [1] (Na+, 20 mM, Time 0.08333) came out at 5.1051; in assay [1] (Na+, 20 mM, Time 0.16667), 0.0051; in assay [1] (Na+, 20 mM, Time 0.5), 5.3907; in assay [1] (Na+, 20 mM, Time 1), 1.8156; in assay [1] (Na+, 20 mM, Time 2) it was 6.1659; in assay [1] (Na+, 20 mM, Time 5), 3.5343. The Melibiose transport is reported as 0.765 in assay [1] (Na+, 20 mM, Time 10); 0.4743 in assay [1] (Na+, 20 mM, Time 30); 0.1281 in assay [1] (Na+, 100 mM, Time 0.08333); 1.6531 in assay [1] (Na+, 100 mM, Time 0.16667); 2.6962 in assay [1] (Na+, 100 mM, Time 0.5); 0.671 in assay [1] (Na+, 100 mM, Time 1). Besides, the Melibiose transport in assay [1] (Na+, 100 mM, Time 2) is -3.3611; in assay [1] (Na+, 100 mM, Time 5), 0.2867; in assay [1] (Na+, 100 mM, Time 10), 0.0793; in assay [1] (Na+, 100 mM, Time 30), -2.3912. Besides, the results for the Kd in assay [2] (Apo) and in assay [2] (Na+ (100 mM)) were 9.28 ± 0.23 mM and 1.09 ± 0.06 mM, respectively.
Take `O=[N+]([O-])c1ccc(OC2OC(CO)C(O)C(O)C2O)cc1` [α-NPG, 4-nitrophenyl-α-D-galactopyranoside]: the “ligand binding by Trp→D2G FRET” value in assay [3] is given as “binds”.
